Data as given in US9162977B2, “Synthetic ion channels” (The University of Hong Kong, priority 2006, dated 2015).
Entries after “also recorded” stand apart in the source; their conditions may differ.

Legend:
[1] = pH-stat fluorometric transport assay (HPTS-loaded liposomes); format: biochemical
Excerpt: This Example illustrates that the compound of Example 2 mediates chloride release when incorporated into liposomes. The liposome-based pH-stat fluorometric assay is an assay routinely used for identification of physiologically relevant ionophores, which are disclosed in (a) Deng, G., Dewa, T. and Regen, S. L. J. Am. Chem. Soc. 1996, 118, 8975; (b) Schlesinger, P. H., Ferdani, R., Liu, J., Pajewska, J., Pajewski, R., Saito, M., Shabany, H. and Gokel, G. W. J. Am. Chem. Soc. 2002, 124, 1848; (c) Sidorov, V., Kotch, F. W., Abdrakhmanova, G., Mizani, R., Fettinger, J. C. and Davis, J. T. J. Am. Chem. Soc. 2002, 124, 2267; (d) Sidorov, V., Kotch, F. W., Kuebler, J. L., Lam, Y.-F. and Davis, J. T. J. Am. Chem. Soc. 2003, 125, 2840; and (e) Baumeister, B., Sakai, N. and Matile, S. Angew. Chem., Int. Ed. 2000, 39, 1955, all of which are incorporated herein by reference. For example, in this assay, a controlled amount of the base and potential ionophore is added to a suspension of liposomes containing a pH-sensitive dye, 8-hydroxypyrene-1,3,6-trisulfonate (HPTS, pyranine). The resulting pH gradient across the bilayer membrane causes the efflux of hydronium ions or the influx of hydroxide ions and builds up an electrostatic potential. This potential can be compensated by the efflux of anions or influx of cations (H^+/M^+ or OH^−/A^− antiport and H^+/A^− or M^+/OH^− symport mechanisms are possible). If the compound of interest mediates such ion transport, the efflux of hydronium ions or the influx of hydroxide ions continues altering the […] pH and the fluorescence of the reporter dye.
Example 2-mediated chloride release was determined in large unilamellar vesicles (LUVs) of 100 nm average dimension, as reported in Sidorov, V., Kotch, F. W., Abdrakhmanova, G., Mizani, R., Fettinger, J. C. and Davis, J. T. J. Am. Chem. Soc. 2002, 124, 2267. […] Importantly, Example 2 mediated electrolyte exchange with high anion selectivity. It mediated electrolyte exchange in the presence of chloride but not in the presence of sulfate (see FIG. 6).

[2] = test system: human embryonic kidney (HEK 293) cells; assay: Whole-cell patch-clamp recording of chloride currents; format: cell-based
Procedure: The whole-cell configuration of the patch-clamp technique was used to examine the electrophysiological properties of the ionic currents induced by Example 2 in human embryonic kidney (HEK 293) cells. HEK 293 cell line originally obtained from the American Type Culture Collection, were cultured in DMEM supplemented with 10% FBS and 100 IU/ml penicillin G and 0.1 mg/ml streptomycin. Cells were grown at 37° C. in a 5% CO2 humidified incubator. Whole-cell chloride currents were recorded by using an EPC 9 patch clamp amplifier (HEKA Elektronik, Lambrecht/Pfalz, Germany) in voltage-clamp mode, controlled by Pulse/PulseFit 8.7 software (HEKA). Patch pipettes (resistance, 3-5 MΩ) were filled with a solution internal pipette solution containing CsCl 140, MgCl2 1, HEPES 10, EGTA 5, Na2ATP 5 (in mmol/L, pH 7.2 with CsOH). The bath solution contained NaCl 140, CsCl 5, CaCl2 1, MgCl2 1, HEPES 10 (in mmol/L, pH 7.4 with CsOH). After gigaohm seals were obtained, the membrane was ruptured with a pulsed negative pressure. Pipette and membrane capacitance were automatically compensated. Series resistance was typically compensated by 70%. […] All macroscopic currents were sampled at 50 kHz and filtered at 5 kHz, and data were analyzed with PulseFit (HEKA). Changes of Cl current were detected from the same cells before and after exposure to the bath solution containing Example 2 at the concentration of 50 nM. […]

[3] = Single-channel recording by patch-clamp on giant liposomes; format: biochemical
Excerpt: Single-channel recording, using patch clamp techniques, is the most critical test for identifying ion channel formation, which is distinguished from other ion transport mechanisms such as ion carriers, and quantifying ion transport efficiency of a membrane channel. The channel-forming activity of Example 2 incorporated in lipid bilayers is examined using patch-clamp technique on giant liposomes.
The two key properties of ion channels in nature are ion selectivity, that is, a channel permits only certain ionic species to flow through its pore, and gating referring to the mechanism of channel opening and closing.

CC(C)C[C@@H](ONC(=O)c1cccc(C(=O)NO[C@H](CC(C)C)C(=O)OC(C)(C)C)c1)C(=O)OC(C)(C)C [Example 1]
melting point: 57 to 59 °C

CC(C)CNC(=O)[C@@H](CC(C)C)ONC(=O)c1cccc(C(=O)NO[C@H](CC(C)C)C(=O)NCC(C)C)n1 [Example 7]
melting point: 175 to 177 °C

CC(C)CNC(=O)[C@@H](CC(C)C)ONC(=O)c1cccc(C(=O)NO[C@H](CC(C)C)C(=O)NCC(C)C)c1 [Example 2]
exchange between extra- and intravesicular electrolytes (chloride release) ([1]; LUVs of 100 nm, NaCl extra- and intravesicular buffers, FIG. 5): rapid, concentration-dependent exchange | transport activity in LUVs loaded with sulfate ([1]; LUVs symmetrically loaded with Na2SO4, FIG. 6): no transport activity was detected | chloride transport across lipid bilayers of chloride-containing liposomes ([1]; LUVs, NaCl extra- and intravesicular buffers, FIG. 7 and FIG. 12): mediates chloride transport across the bilayer | melting point: 176 to 178 °C | whole cell (chloride) currents ([2]; 50 nM in bath solution, room temperature, FIG. 9): dramatically increases cell chloride currents; also recorded: large increase | induced whole cell currents in the presence of an anion transport inhibitor ([2]; in the presence of DIDS): not reduced | change in conductance or reversal potential ([3]; NMDG-Cl in the bath solution replaced by KCl): no measurable change | ion selectivity of the channels formed ([3]; giant liposomes, patch clamp): chloride selectivity; also recorded: anion selective | gating of the channels formed ([3]; giant liposomes, patch clamp, FIG. 8): voltage dependent gating; also recorded: voltage-gated | primary single-channel conductance ([3]; symmetric 0.2 M N-methyl-glucamine hydrochloride (NMDG-Cl) solutions, compound in bath solution, FIG. 8): 54 pS | channel open probability (Po) and frequency ([3]; upon increasing voltages of lipid bilayers within a physiologically relevant range, FIG. 8): enhanced steeply

CCCCCCCCCCCCCCCCCCNC(=O)[C@@H](CC(C)C)ONC(=O)c1cccc(C(=O)NO[C@H](CC(C)C)C(=O)NCCCCCCCCCCCCCCCCCC)c1 [Example 5]
melting point: 88 to 90 °C

CC(C)CNC(=O)[C@H](CC(C)C)NC(=O)c1cccc(C(=O)N[C@@H](CC(C)C)C(=O)NCC(C)C)c1 [Example 8]
melting point: 240 to 242 °C

CC(C)CNC(=O)[C@@H](CC(C)C)ONC(=O)c1ccccc1 [Example 6]
melting point: 130 to 132 °C

CC(C)CNC(=O)[C@H](CC(C)C)OC(=O)c1cccc(C(=O)O[C@@H](CC(C)C)C(=O)NCC(C)C)c1 [Example 9]
melting point: 137 to 139 °C
